Data published in doi:10.1101/2024.05.07.592940v1 (biorxiv, 2024).
Residue numbers refer to the chain shown, from its start.

Columns and labels:
PTPN2 [1] = target: T1, PTPN2 (Homo sapiens, UniProt P17706); assay: pNPP hydrolysis, absorbance […] nm; format: biochemical
T1 sequence (P17706 1-314): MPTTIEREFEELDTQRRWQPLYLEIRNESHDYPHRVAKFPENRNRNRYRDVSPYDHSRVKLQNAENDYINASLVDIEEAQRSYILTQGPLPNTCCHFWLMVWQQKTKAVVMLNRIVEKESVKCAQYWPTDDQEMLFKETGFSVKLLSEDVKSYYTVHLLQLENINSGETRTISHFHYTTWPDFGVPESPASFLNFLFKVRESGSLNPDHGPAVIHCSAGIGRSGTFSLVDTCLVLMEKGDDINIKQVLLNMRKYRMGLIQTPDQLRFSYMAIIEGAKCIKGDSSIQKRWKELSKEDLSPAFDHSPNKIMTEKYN

PTP1B = target: T2, PTP1B (Homo sapiens, UniProt P18031); assay: pNPP hydrolysis, absorbance […] nm; format: biochemical
T2 sequence (P18031 1-321): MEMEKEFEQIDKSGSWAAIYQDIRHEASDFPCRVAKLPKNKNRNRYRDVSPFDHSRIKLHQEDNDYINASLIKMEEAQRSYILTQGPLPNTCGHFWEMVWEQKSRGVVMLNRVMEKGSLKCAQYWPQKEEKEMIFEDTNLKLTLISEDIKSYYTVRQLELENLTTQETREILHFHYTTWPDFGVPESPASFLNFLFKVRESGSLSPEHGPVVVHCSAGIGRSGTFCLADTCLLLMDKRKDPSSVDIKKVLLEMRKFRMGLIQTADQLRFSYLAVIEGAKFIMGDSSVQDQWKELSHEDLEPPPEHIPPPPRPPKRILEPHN

PTPN2 [2] = target: T1, PTPN2; assay: microscale thermophoresis; format: binding
PTPN2 [3] = target: T3, PTPN2 (Homo sapiens, UniProt P17706, C216G); assay: microscale thermophoresis; format: binding
T3 sequence (P17706 1-314 C216G): T1 sequence (P17706 1-314) with C216G

Structure (SMILES) | IC50 (PTPN2 [1]) [µM] | IC50 (PTP1B) [µM] | Kd (PTPN2 [2]) [µM] | Kd (PTPN2 [3]) [µM]
O=c1sn(CCOc2ccc([N+](=O)[O-])cc2)c(=O)n1Cc1ccccc1 [K73] | 0.324 | 4.27 | 0.646 | 31.6
O=c1sn(-c2cccc3ccccc23)c(=O)n1Cc1ccccc1 [NP-12] | 3.23 | 4.66 | – | –
